Results as given in patent publication US20260001898A1, “Heteroaryl compounds as inhibitors of TYK2/JAK1, composition and application thereof” (Accro Bioscience (HK) Limited, priority 2022, published 2026).

Columns and labels:
[1] = system: IFNα induced TYK2/JAK1 mediated STAT activation; assay: Luciferase assay in L929 ISRE cells stimulated with IFN-α; assay type: cell-based; conditions: Mus musculus, IFN-α 100 ng/mL
[2] = system: JAK1/JAK2 pathway; assay: Western blot p-STAT1/STAT1 in IFN-γ-stimulated HT-29 cells; assay type: cell-based; conditions: IFN-γ 100 ng/mL
Experimental: HT-29 cells were digested by trypsin and suspended in Dulbecco's Modified Eagle Medium (DMEM) and counted. The tested compounds were added into the 6 well plates (400 000/per well). After 2 hours, IFN-γ (100 ng/mL) was added to stimulate cells for 30 minutes. The cells were collected and lysed with protein lysate. The protein was quantitatively tested by BCA kit. Finally, p-STAT1/STAT1 and internal reference protein β-actin were detected by Western blot.

[3] = system: IFNα induced CXCL-10 in PBMC; assay: ELISA of IFNα induced CXCL-10 in PBMC; assay type: cell-based
Experimental: • 1. Soak plate: Add 300 μL 1× washing solution and let stand for 30 seconds. After discarding the washing solution, anhydrous the microporous plate on absorbent paper. • 2. Add standard: Add 100 μL of 2-fold standard to standard well. Add 100 μL standard dilution (serum/plasma sample) or culture medium (cell culture supernatant sample) to blank well. • 3. Add sample: Serum/plasma: Add 50 μL 1× assay buffer and 50 μL sample to sample well. Cell culture supernatant: Add 100 μL cell culture supernatant to sample well. • 4. Add detection antibody: Add 50 μL diluted detection antibody (1:100 diluted) to each well. Make sure steps 4, 5 and 6 are added continuously without interruption. The sampling process was completed within 15 minutes. • 5. Incubation: Use sealing plate film to seal the plate. Shake at 300 rpm and incubate for 2 hours at room temperature. • 6. Washing: Discard the liquid, add 300 μL of washing solution and wash the plate 6 times. Pat anhydrous on blotting paper after each wash. To obtain the desired experimental performance, the residual liquid must be completely removed. • 7. Enzyme addition: Add 100 μL diluted horseradish peroxidase labeled streptavidin to each well (1:100 diluted). • 8. Incubation: Seal the plate with a new sealing film. Shake at 300 rpm and incubate at room temperature for 45 minutes. • 9. Washing: Repeat […]. • 10. Add substrate for color development: Add 100 μL of color development substrate TMB to each well, keep away from light, and incubate at room temperature for 5-30 minutes. • 11. Add Stop Solution: Add 100 μL stop solution to each well. The color changed from blue to yellow. If the color appears green or the color changes unevenly, gently tap the frame of the plate to mix well. • 12. Assay readout: Within 30 minutes, perform dual wavelength detection using a microplate reader to measure the OD at the absorption maximum at 450 nm and reference wavelengths at 570 nm or 630 nm. The calibrated OD value is the measured value at 450 nm minus the measured value at 570 nm or 630 nm.

[4] = molecular target: TYK2 JH2 (Homo sapiens (Human), UniProt P29597); assay: Competitive binding assay
Chain of TYK2 JH2 (P29597 589-875): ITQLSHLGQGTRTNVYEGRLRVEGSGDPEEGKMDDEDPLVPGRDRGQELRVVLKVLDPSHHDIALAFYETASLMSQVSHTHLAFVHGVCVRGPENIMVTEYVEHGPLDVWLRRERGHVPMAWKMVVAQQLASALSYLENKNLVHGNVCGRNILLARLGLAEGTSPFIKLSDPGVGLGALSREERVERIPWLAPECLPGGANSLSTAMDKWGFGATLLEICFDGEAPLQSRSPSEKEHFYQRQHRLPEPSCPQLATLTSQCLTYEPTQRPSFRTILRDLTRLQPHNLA
Experimental: (§1) For most assays, kinase-tagged T7 phage strains were prepared in an E. coli host derived from the BL21 strain. E. coli were grown to log-phase and infected with T7 phage and incubated with shaking at 32° C. until lysis. The lysates were centrifuged and filtered to remove cell debris. The remaining kinases were produced in HEK-293 cells and subsequently tagged with DNA for qPCR detection. Streptavidin coated magnetic beads were treated with biotinylated small molecule ligands for 30 minutes at room temperature to generate affinity resins for kinase assays. The liganded beads were blocked with excess biotin and washed with blocking buffer (SeaBlock (Pierce), 1% BSA, 0.05% Tween 20, 1 mM DTT) to remove unbound ligand and to reduce non-specific binding. […] Test compounds were prepared as 111X stocks in 100% DMSO. Dissociation constants (Kds) were determined using an 11-point 3-fold compound dilution series with three DMSO control points. […] The compounds were then diluted directly into the assays such that the final concentration of DMSO was 0.9%. All reactions performed in polypropylene 384-well plate. Each was a final volume of 0.02 ml. […] The beads were then re-suspended in elution buffer (1×PBS, 0.05% Tween 20, 0.5 μM nonbiotinylated affinity ligand) and incubated at room temperature with shaking for 30 minutes. The kinase concentration in the eluates was measured by qPCR.
(§2) An 11-point 3-fold serial dilution of each test compound was prepared in 100% DMSO at 100× final test concentration and subsequently diluted to 1× in the assay (final DMSO concentration=1%). Most Kds were determined using a compound top concentration=30,000 nM. If the initial Kd determined was <0.5 nM (the lowest concentration tested), the measurement was repeated with a serial dilution starting at a lower top concentration.
(§3) Binding constants (Kds) were calculated with a standard dose-response curve using the Hill equation: […]
(§4) The Hill Slope was set to −1.
(§5) Curves were fitted using a non-linear least square fit with the Levenberg-Marquardt algorithm.

[5] = molecular target: JAK1 JH2 (Homo sapiens (Human), UniProt P23458); assay: Competitive binding assay
Chain of JAK1 JH2 (P23458 583-855): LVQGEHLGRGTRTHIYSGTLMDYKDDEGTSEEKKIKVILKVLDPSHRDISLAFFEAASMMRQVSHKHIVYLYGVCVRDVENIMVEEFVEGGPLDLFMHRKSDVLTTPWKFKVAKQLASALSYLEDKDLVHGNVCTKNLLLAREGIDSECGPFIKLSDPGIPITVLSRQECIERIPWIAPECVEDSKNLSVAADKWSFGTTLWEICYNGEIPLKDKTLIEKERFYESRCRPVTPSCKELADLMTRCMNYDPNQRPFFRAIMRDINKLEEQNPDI
Experimental: as §1, §2, §3, §4, §5

[6] = molecular target: JAK3 JH1 (Homo sapiens (Human), UniProt P52333); assay: Competitive binding assay
Chain of JAK3 JH1 (P52333 822-1111): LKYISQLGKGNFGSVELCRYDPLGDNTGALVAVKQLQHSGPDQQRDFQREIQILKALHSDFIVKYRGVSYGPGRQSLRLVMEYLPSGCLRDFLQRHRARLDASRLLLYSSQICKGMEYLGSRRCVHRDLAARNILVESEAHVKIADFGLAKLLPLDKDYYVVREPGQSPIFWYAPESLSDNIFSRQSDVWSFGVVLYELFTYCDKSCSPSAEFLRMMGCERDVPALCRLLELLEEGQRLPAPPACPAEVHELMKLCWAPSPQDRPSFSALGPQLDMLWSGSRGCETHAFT
Experimental: as §1, §2, §3, §4, §5

[7] = molecular target: TYK2 JH1 (Homo sapiens (Human), UniProt P29597); assay: Competitive binding assay
Chain of TYK2 JH1 (P29597 897-1176): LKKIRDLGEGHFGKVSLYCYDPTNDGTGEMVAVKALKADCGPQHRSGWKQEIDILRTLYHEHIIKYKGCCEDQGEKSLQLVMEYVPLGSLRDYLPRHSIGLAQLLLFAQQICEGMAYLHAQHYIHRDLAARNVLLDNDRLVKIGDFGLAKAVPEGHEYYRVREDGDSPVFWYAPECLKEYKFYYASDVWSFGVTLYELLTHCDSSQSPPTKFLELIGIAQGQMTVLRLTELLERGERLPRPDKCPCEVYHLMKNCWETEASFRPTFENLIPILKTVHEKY
Experimental: as §1, §2, §3, §4, §5

[8] = molecular target: JAK1 JH1 (Homo sapiens (Human), UniProt P23458); assay: Competitive binding assay
Chain of JAK1 JH1 (P23458 875-1153): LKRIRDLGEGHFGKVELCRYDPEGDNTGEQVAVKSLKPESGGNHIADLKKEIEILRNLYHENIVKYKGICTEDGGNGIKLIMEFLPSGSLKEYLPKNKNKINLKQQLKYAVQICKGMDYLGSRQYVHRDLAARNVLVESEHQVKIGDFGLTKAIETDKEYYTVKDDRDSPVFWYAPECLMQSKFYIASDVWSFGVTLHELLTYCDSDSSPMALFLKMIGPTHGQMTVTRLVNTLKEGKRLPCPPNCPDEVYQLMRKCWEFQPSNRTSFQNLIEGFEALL
Experimental: as §1, §2, §3, §4, §5

[9] = molecular target: JAK2 JH1 (Homo sapiens (Human), UniProt O60674); assay: Competitive binding assay
Chain of JAK2 JH1 (O60674 849-1124): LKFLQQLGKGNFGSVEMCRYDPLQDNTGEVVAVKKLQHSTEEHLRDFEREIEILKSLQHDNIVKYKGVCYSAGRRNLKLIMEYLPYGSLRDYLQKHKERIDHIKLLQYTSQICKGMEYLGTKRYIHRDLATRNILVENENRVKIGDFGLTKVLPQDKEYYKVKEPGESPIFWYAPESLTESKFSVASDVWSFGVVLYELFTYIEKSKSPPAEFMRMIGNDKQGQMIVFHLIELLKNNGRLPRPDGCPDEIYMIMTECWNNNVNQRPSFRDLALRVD
Experimental: as §1, §2, §3, §4, §5

[10] = system: JAK1 JH2 and TYK2 JH2 versus JAK1 JH1, JAK2 JH1, JAK3 JH1 and TYK2 JH1; assay: Competitive binding assay, selectivity JH2 versus JH1 domains
Experimental: For most assays, kinase-tagged T7 phage strains were prepared in an E. coli host derived from the BL21 strain. E. coli were grown to log-phase and infected with T7 phage and incubated with shaking at 32° C. until lysis. The lysates were centrifuged and filtered to remove cell debris. The remaining kinases were produced in HEK-293 cells and subsequently tagged with DNA for qPCR detection. Streptavidin coated magnetic beads were treated with biotinylated small molecule ligands for 30 minutes at room temperature to generate affinity resins for kinase assays. The liganded beads were blocked with excess biotin and washed with blocking buffer (SeaBlock (Pierce), 1% BSA, 0.05% Tween 20, 1 mM DTT) to remove unbound ligand and to reduce non-specific binding. […] Test compounds were prepared as 111X stocks in 100% DMSO. Dissociation constants (Kds) were determined using an 11-point 3-fold compound dilution series with three DMSO control points. […] The compounds were then diluted directly into the assays such that the final concentration of DMSO was 0.9%. […] The kinase concentration in the eluates was measured by qPCR.
An 11-point 3-fold serial dilution of each test compound was prepared in 100% DMSO at 100× final test concentration and subsequently diluted to 1× in the assay (final DMSO concentration=1%). Most Kds were determined using a compound top concentration=30,000 nM. […]

Kd [4]: 0.0044 ± 0.003 nM | affinity to TYK2 JH2 [4]: strong affinity | Kd [5]: 0.02 ± 0.002 nM | affinity to JAK1 JH2 [5]: strong affinity | Kd [6]: 210 ± 15 nM | affinity to JAK3 JH1 [6]: weak affinity | Kd [7]: 550 ± 50 nM | affinity to TYK2 JH1 [7]: weak affinity | Kd [8]: 6900 ± 900 nM | affinity to JAK1 JH1 [8]: weak affinity | Kd [9]: 790 ± 40 nM | affinity to JAK2 JH1 [9]: weak affinity | selectivity to bind JAK1 JH2 and TYK2 JH2 than JAK1 JH1, JAK2 JH1, JAK3 JH1 and TYK2 JH1 [10]: more than 10,000 times
Compound: COc1c(Nc2cc(NC(=O)C3CC3)nnc2C(N)=O)cccc1-c1cc(P(=O)(C2CC2)C2CC2)n(C)n1 [Compound A1, 6-(cyclopropanecarboxamido)-4-((3-(5-(dicyclopropylphosphoryl)-1-methyl-1H-pyrazol-3-yl)-2-methoxyphenyl)amino)pyridazine-3-carboxamide]
inhibition at 0.05 µM ([1]; 50 nM compound, read-out: Inhibitory activity % (50 nM)): 34% | inhibition at 0.2 µM ([1]; 200 nM compound, read-out: Inhibitory activity % (200 nM)): 87% | inhibition at 1 µM ([1]; 1000 nM compound, read-out: Inhibitory activity % (1000 nM)): 98% | effect on downstream STAT1 phosphorylation induced by IFN-γ (JAK1/JAK2 pathway) [2]: inhibited JAK1/JAK2 pathway in a concentration-dependent manner | inhibition of IFNα induced CXCL-10 in PBMC [3]: effectively inhibited IFNα induced CXCL-10 in PBMC | IC50 ([3]; IFNα induced CXCL-10 in PBMC): 6.3 nM
